Results reported in PubChem BioAssay AID1259407 (Chemical Carcinogenesis Research Information System (CCRIS), 2018).
Active and inactive are the calls of the source. How the calls were made is not given here.

Test system: CCRIS mutagenicity, Ames/micronucleus/aberration tests
Assay: CCRIS mutagenicity studies
[1] = Test System: AMES SALMONELLA TYPHIMURIUM, Strain/Indicator: TA100, Metabolic Activation: NONE, Method: STANDARD PLATE
[2] = Test System: AMES SALMONELLA TYPHIMURIUM, Strain/Indicator: TA98, Metabolic Activation: NONE, Method: PREINCUBATION

SMILES: C=Cc1ccc(N)cc1
- mutagenic call (Test System: AMES SALMONELLA TYPHIMURIUM, Strain/Indicator: TA98, Metabolic Activation: HAMSTER, LIVER, S-9, AROCLOR 1254, Method: STANDARD PLATE): active; positive
- mutagenic call (Test System: AMES SALMONELLA TYPHIMURIUM, Strain/Indicator: TA98, Metabolic Activation: NONE, Method: STANDARD PLATE): inactive; negative
- mutagenic call (Test System: AMES SALMONELLA TYPHIMURIUM, Strain/Indicator: TA98, Metabolic Activation: RAT, LIVER, S-9, AROCLOR 1254, Method: STANDARD PLATE): inactive; negative
- mutagenic call (Test System: AMES SALMONELLA TYPHIMURIUM, Strain/Indicator: TA100, Metabolic Activation: HAMSTER, LIVER, S-9, AROCLOR 1254, Method: STANDARD PLATE): active; positive
- mutagenic call [1]: inactive; negative
- mutagenic call (Test System: AMES SALMONELLA TYPHIMURIUM, Strain/Indicator: TA100, Metabolic Activation: RAT, LIVER, S-9, AROCLOR 1254, Method: STANDARD PLATE): inactive; negative
- mutagenic call (Test System: MOUSE LYMPHOMA, Strain/Indicator: L5178Y (TK+/TK-), Metabolic Activation: NONE, Method: SUSPENSION/PLATE): inactive; positive. reevaluation of results: negative
- mutagenic call (Test System: MOUSE LYMPHOMA, Strain/Indicator: L5178Y (TK+/TK-), Metabolic Activation: RAT, LIVER, S-9, AROCLOR 1254, Method: SUSPENSION/PLATE): inactive; positive. reevaluation of results: negative

SMILES: CCOP(=O)(OCC)N1[C@@H]2c3ccccc3-c3ccccc3[C@@H]21 (stereo partly drawn)
- mutagenic call [1]: active; positive
- mutagenic call (Test System: CHINESE HAMSTER V-79, Strain/Indicator: V-79/6-THIOGUANINE, Metabolic Activation: NONE, Method: STANDARD PLATE): active; positive

SMILES: CCc1cccc(CC)c1NC(C)=O
- mutagenic call [2]: inactive; negative
- mutagenic call (Test System: AMES SALMONELLA TYPHIMURIUM, Strain/Indicator: TA98, Metabolic Activation: RAT, LIVER, MICROSOMES, PHENOBARBITAL, Method: PREINCUBATION): inactive; negative

SMILES: O=C1CCCCCCCCCCCCCCO1
- mutagenic call [2]: inactive; negative
- mutagenic call (Test System: AMES SALMONELLA TYPHIMURIUM, Strain/Indicator: TA98, Metabolic Activation: RAT LIVER S-9, PHENOBARBITAL AND BETA-NAPHTHOFLAVONE, Method: PREINCUBATION): inactive; negative
- mutagenic call (Test System: AMES SALMONELLA TYPHIMURIUM, Strain/Indicator: TA100, Metabolic Activation: NONE, Method: PREINCUBATION): inactive; negative
- mutagenic call (Test System: AMES SALMONELLA TYPHIMURIUM, Strain/Indicator: TA100, Metabolic Activation: RAT LIVER S-9, PHENOBARBITAL AND BETA-NAPHTHOFLAVONE, Method: PREINCUBATION): inactive; negative
- mutagenic call (Test System: AMES SALMONELLA TYPHIMURIUM, Strain/Indicator: TA102, Metabolic Activation: NONE, Method: PREINCUBATION): inactive; negative
- mutagenic call (Test System: AMES SALMONELLA TYPHIMURIUM, Strain/Indicator: TA102, Metabolic Activation: RAT LIVER S-9, PHENOBARBITAL AND BETA-NAPHTHOFLAVONE, Method: PREINCUBATION): inactive; negative
- mutagenic call (Test System: AMES SALMONELLA TYPHIMURIUM, Strain/Indicator: TA104, Metabolic Activation: NONE, Method: PREINCUBATION): inactive; negative
- mutagenic call (Test System: AMES SALMONELLA TYPHIMURIUM, Strain/Indicator: TA104, Metabolic Activation: RAT LIVER S-9, PHENOBARBITAL AND BETA-NAPHTHOFLAVONE, Method: PREINCUBATION): inactive; negative
- mutagenic call (Test System: AMES SALMONELLA TYPHIMURIUM, Strain/Indicator: TA1535, Metabolic Activation: NONE, Method: PREINCUBATION): inactive; negative
- mutagenic call (Test System: AMES SALMONELLA TYPHIMURIUM, Strain/Indicator: TA1535, Metabolic Activation: RAT LIVER S-9, PHENOBARBITAL AND BETA-NAPHTHOFLAVONE, Method: PREINCUBATION): inactive; negative
- mutagenic call (Test System: AMES SALMONELLA TYPHIMURIUM, Strain/Indicator: TA1537, Metabolic Activation: NONE, Method: PREINCUBATION): inactive; negative
- mutagenic call (Test System: AMES SALMONELLA TYPHIMURIUM, Strain/Indicator: TA1537, Metabolic Activation: RAT LIVER S-9, PHENOBARBITAL AND BETA-NAPHTHOFLAVONE, Method: PREINCUBATION): inactive; negative
- mutagenic call (Test System: E.COLI, Strain/Indicator: WP2UVRA/PKM101, Metabolic Activation: NONE, Method: PREINCUBATION): inactive; negative
- mutagenic call (Test System: E.COLI, Strain/Indicator: WP2UVRA/PKM101, Metabolic Activation: RAT LIVER S-9, PHENOBARBITAL AND BETA-NAPHTHOFLAVONE, Method: PREINCUBATION): inactive; negative
- mutagenic call (Test System: E.COLI, Strain/Indicator: WP2UVRA, Metabolic Activation: NONE, Method: PREINCUBATION): inactive; negative
- mutagenic call (Test System: E.COLI, Strain/Indicator: WP2UVRA, Metabolic Activation: RAT LIVER S-9, PHENOBARBITAL AND BETA-NAPHTHOFLAVONE, Method: PREINCUBATION): inactive; negative
